“And” between values parts separate entries of the source, which are not always exact repeats. Equal values may be shown once. Read-outs that look alike come from different tables or passages of the source. Some results are limits rather than exact numbers.

The source of these data is publication PMC5193068, “Application of Mice Humanized for CYP2D6 to the Study of Tamoxifen Metabolism and Drug–Drug Interaction with Antidepressants” (Drug Metabolism and Disposition, 2017).

Details of data set [1]: method as in gsk-clinicalstudyregister.com study 29060/474. The settings on record: patients receiving 40 mg/d paroxetine; ref gsk-clinicalstudyregister.com study 29060/474; cited from earlier work.
Data set [2] concerns murine plasma proteins. Set-up: method as in van Harten, 1993; Qin et al., 2016. To be noted: mouse plasma; ref van Harten, 1993; Qin et al., 2016; cited from earlier work.
Data set [3] has as its target T1, CYP2D6 (Homo sapiens, UniProt P10635). To be noted: read-out: Ki for inhibition of dextromethorphan O-demethylation; HLMs; ref Bertelsen et al. (2003); cited from earlier work.
Data set [4] concerns E0771 cells. Kind of data set: Estradiol dependence of E0771 cell growth in vitro. It is filed as cell-based, mouse. To be noted: Supplemental Fig. 2.
Data set [5] can be described thus: Preliminary single oral dose of tamoxifen in hCYP2D6 mice, blood metabolite concentrations. In kind it is in vivo. The settings on record: single 15-mg/kg oral dose of tamoxifen; for Cmax: hCYP2D6 (CYP2D6-humanized mouse line), mouse, blood, preliminary, data not shown.
Details of data set [6]: method as in Chang et al., 2016. The settings on record: hPXR/hCAR/h3A4/3A7/2D6 mice, single dose of 20 mg/kg tamoxifen; ref Chang et al., 2016; cited from earlier work.
Data set [7] relates to estrogen receptor (ER). Set-up: method as in Johnson et al., 2004. The settings on record: ref Johnson et al., 2004; cited from earlier work.
For data set [8], the target named is T1, CYP2D6. To be noted: female, hCYP2D6 (mice humanized for CYP2D6), mouse, in vivo. The procedure:
All animal work was carried out on 8- to 12-week-old female mice. […] NDT was suspended in corn oil at 2 mg/ml for oral administration at 10 mg/kg (5 µl/g body weight). For sample collection for pharmacokinetic (PK) analysis, 10 µl whole blood was withdrawn from the tail vein at the indicated time points. Samples were immediately added to a tube containing heparin solution (10 µl, 15 IU/ml) and stored at −20°C until processing.
In vivo PK samples were thawed by the addition of 70 µl acetonitrile containing the internal standard (tamoxifen-d5 at 0.2 µg/ml). After incubation on ice for 10 minutes, in vivo and in vitro samples were vortexed (5 seconds) and centrifuged for 10 minutes at 16,000g. The supernatant was added to 96-well plates for liquid chromatography (LC)–tandem mass spectrometry (MS/MS).
Analysis of in vitro incubation and in vivo blood PK samples was carried out on a Waters Acquity ultra-performance LC system and a Micromass Quattro Premier mass spectrometer (both Micromass, Manchester, UK). […] Acquired data were analyzed in QuanLynx (Waters, Milford, MA) relative to analyte standard curves spanning the range of concentrations under study.
Plasma levels of both of these compounds, and of endoxifen, were monitored over the following 48-hour period.

For data set [9], the target named is T1, CYP2D6. Kind of data set: biochemical.
Protocol: (§1) All in vitro analyses were carried out in 100 mM potassium phosphate buffer, pH 7.4, containing 3.3 mM MgCl2, with agitation at 400 rpm at 37°C on a thermoshaker. All samples were handled in amber tubes under conditions of subdued light for the duration of the procedure. […] All subsequent assays were carried out under the same conditions, irrespective of the microsome source, with 5 µM N-desmethyltamoxifen (NDT) as substrate. […] Solvent (methanol) concentrations were 0.2% or lower in all incubations.
(§2) Spearman’s rank correlations and inhibition parameters of ADs were calculated using GraphPad Prism software (version 6; GraphPad Inc., La Jolla, CA).
Data set [10] is described as follows: Endoxifen formation from NDT in Cyp2dKO mouse liver microsomes. It is filed as in vitro ADME. The settings on record: 5 µM NDT as substrate. Background: Liver microsomes are vesicles of endoplasmic reticulum, rich in cytochrome P450 enzymes.
Protocol: as §1
The test system of data set [11] is CYP1A2. Kind of data set: Correlation of NDT hydroxylation with P450 probe substrate metabolism in panel of 13 HLMs (1A2). In kind it is in vitro ADME, human. The settings on record: 1A2, Phenacetin O-deethylation.
Protocol: as §1, §2
Data set [12] concerns CYP2A6. Kind of data set: Correlation of NDT hydroxylation with P450 probe substrate metabolism in panel of 13 HLMs (2A6). The settings on record: 2A6, Coumarin 7-hydroxylation. It is filed as in vitro ADME, human.
Protocol: as §1, §2
The test system of data set [13] is CYP2B6. Kind of data set: Correlation of NDT hydroxylation with P450 probe substrate metabolism in panel of 13 HLMs (2B6). In kind it is in vitro ADME, human. To be noted: 2B6, S-mephenytoin N-demethylation.
Protocol: as §1, §2
Data set [14] deals with CYP2C8. Kind of data set: Correlation of NDT hydroxylation with P450 probe substrate metabolism in panel of 13 HLMs (2C8). In kind it is in vitro ADME, human. To be noted: 2C8, Paclitaxel 6α-hydroxylation.
Protocol: as §1, §2
Data set [15] has as its system CYP2C9. Kind of data set: Correlation of NDT hydroxylation with P450 probe substrate metabolism in panel of 13 HLMs (2C9). In kind it is in vitro ADME, human. The settings on record: 2C9, Diclofenac 4′-hydroxylation.
Protocol: (§3) All in vitro analyses were carried out in 100 mM potassium phosphate buffer, pH 7.4, containing 3.3 mM MgCl2, with agitation at 400 rpm at 37°C on a thermoshaker. All samples were handled in amber tubes under conditions of subdued light for the duration of the procedure. […] Assays to determine the apparent kinetic parameters of endoxifen formation in hCYP2D6 mouse liver microsomes (MLMs) were performed in triplicate under conditions of linearity for time (6 minutes) and hCYP2D6 protein (0.0625 mg/ml). All subsequent assays were carried out under the same conditions, irrespective of the microsome source, with 5 µM N-desmethyltamoxifen (NDT) as substrate. […] Solvent (methanol) concentrations were 0.2% or lower in all incubations.
as §2
For data set [16], the system named is CYP2C19. Kind of data set: Correlation of NDT hydroxylation with P450 probe substrate metabolism in panel of 13 HLMs (2C19). In kind it is in vitro ADME, human. To be noted: 2C19, S-mephenytoin 4′-hydroxylation.
Protocol: as §3, §2
In data set [17] the test system is CYP2E1. Kind of data set: Correlation of NDT hydroxylation with P450 probe substrate metabolism in panel of 13 HLMs (2E1). To be noted: 2E1, Chlorzoxazone 6-hydroxylation. It is filed as in vitro ADME, human.
Protocol: as §3, §2
The test system of data set [18] is CYP3A4. Kind of data set: Correlation of NDT hydroxylation with P450 probe substrate metabolism in panel of 13 HLMs (3A4). It is filed as in vitro ADME, human. To be noted: 3A4, Testosterone 6β-hydroxylation.
Protocol: as §1, §2
Data set [19] in a line: Preliminary tolerability of single doses of NDT in mice. In kind it is in vivo. To be noted: single doses of NDT required to achieve about 200 ng/ml, data not shown.
For data set [20] the following is noted: 2013, Jager et al., 2014, cited from earlier work.
For data set [21], the target named is T1, CYP2D6. Kind of data set: Apparent kinetic parameters of endoxifen formation from NDT in hCYP2D6 mouse liver microsomes. In kind it is in vitro ADME. Set-up: Assays to determine the apparent kinetic parameters of endoxifen formation in hCYP2D6 mouse liver microsomes (MLMs) were performed in triplicate; tissue Taconic (animals); host or cells: liver microsomes pooled from four hCYP2D6 (CYP2D6-humanized, murine Cyp2d deleted) mice. To be noted: hCYP2D6 MLMs 0.0625 mg/ml, 6 min, substrate inhibition model.
Protocol: as §3, §2

Data set [22] deals with T1, CYP2D6. Kind of data set: Correlation of NDT hydroxylation with P450 probe substrate metabolism in panel of 13 HLMs (2D6). In kind it is in vitro ADME. Set-up: Assays to determine the apparent kinetic parameters of endoxifen formation in hCYP2D6 mouse liver microsomes (MLMs) were performed in triplicate; tissue Taconic (animals); host or cells: liver microsomes pooled from four hCYP2D6 (CYP2D6-humanized, murine Cyp2d deleted) mice. The settings on record: 2D6, Bufuralol 1′-hydroxylation.
Protocol: as §3, §2

In data set [23] the target is T1, CYP2D6. Set-up: Assays to determine the apparent kinetic parameters of endoxifen formation in hCYP2D6 mouse liver microsomes (MLMs) were performed in triplicate; tissue Taconic (animals); host or cells: liver microsomes pooled from four hCYP2D6 (CYP2D6-humanized, murine Cyp2d deleted) mice; method as in Desta et al. (2004). The settings on record: two individual HLM preparations; ref Desta et al. (2004); read-out: Km (endoxifen formation); cited from earlier work.

T1 sequence (P10635 whole entry): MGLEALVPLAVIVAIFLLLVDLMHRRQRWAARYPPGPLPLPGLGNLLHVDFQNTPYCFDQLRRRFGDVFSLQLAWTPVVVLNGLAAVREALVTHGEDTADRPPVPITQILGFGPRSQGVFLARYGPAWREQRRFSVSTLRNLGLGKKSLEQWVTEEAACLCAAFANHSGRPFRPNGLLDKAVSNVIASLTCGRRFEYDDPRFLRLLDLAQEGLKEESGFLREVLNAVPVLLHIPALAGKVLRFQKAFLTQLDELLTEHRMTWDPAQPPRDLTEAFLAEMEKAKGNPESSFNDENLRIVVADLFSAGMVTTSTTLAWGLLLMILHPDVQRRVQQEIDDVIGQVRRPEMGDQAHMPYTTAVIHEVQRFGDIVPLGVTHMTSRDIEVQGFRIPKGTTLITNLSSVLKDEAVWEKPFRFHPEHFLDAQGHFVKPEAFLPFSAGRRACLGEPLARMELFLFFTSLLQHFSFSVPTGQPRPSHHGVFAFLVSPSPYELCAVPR

In the case of `Fc1ccc([C@@H]2CCNC[C@H]2COc2ccc3c(c2)OCO3)cc1` [paroxetine], the “steady-state Cmax” value in data set [1] was “approximately 150 ng/ml”. Also, the “binding with murine plasma proteins” value in [2] is reported as more than 96%. Also, the inhibitory constant (Ki) in data set [3] is 360 nM.

As for `C[C@]12CC[C@@H]3c4ccc(O)cc4CC[C@H]3[C@@H]1CC[C@@H]2O` [estradiol], in data set [4], the “dependence of E0771 cell growth on estradiol” value is reported as “no dependence whatsoever”.

On to `CC/C(=C(\c1ccc(O)cc1)c1ccc(OCCN(C)C)cc1)c1ccccc1` [4-HT, 4-hydroxytamoxifen], for which, in [5], the maximum concentration (Cmax) was 235 ng/mL and the “blood concentration of 4-HT relative to NDT” value turned out to be 2.7 fold. In [6], the “4-HT levels relative to NDT” value is 5.4 fold and the Cmax is 248 ng/mL. Further, the “potency as estrogen receptor (ER) antagonist relative to the parent compound (tamoxifen)” value in data set [7] is reported as “up to 100 times”.

On to `CC/C(=C(\c1ccc(O)cc1)c1ccc(OCCNC)cc1)c1ccccc1` [endoxifen, 4-hydroxy-N-desmethyltamoxifen], for which the “endoxifen levels in hCYP2D6 mice relative to human subjects” value in data set [8] is reported as 2.5-13 fold. The “potency as estrogen receptor (ER) antagonist relative to the parent compound (tamoxifen)” value in [7] is “up to 100 times”.

Regarding `CN(C)CCC=C1c2ccccc2CCc2ccccc21` [amitriptyline], the Ki in data set [9] amounted to 720 nM.

For the compound `CC/C(=C(\c1ccccc1)c1ccc(OCCNC)cc1)c1ccccc1` [NDT, N-desmethyltamoxifen], the “endoxifen formation by Cyp2dKO liver microsomes” value in data set [10] is listed as “did not produce detectable levels”. Moreover, the “SRCC with NDT Hydroxylation” value is given as −0.289 in [11]; 0.161 in [12]; 0.572 in data set [13]; 0.380 in [14]; 0.526 in data set [15]; −0.220 in data set [16]. For the same compound, the “SRCC with NDT Hydroxylation” value is recorded as 0.311 in data set [17], −0.005 in data set [18] and 0.698 in data set [22]. For the same compound, the maximum concentration (Cmax) is 86 ng/mL in data set [5] and 46 ng/mL in data set [6]. Besides, in [19], the “tolerability of single doses” value is listed as “not well tolerated by all animals”. Further, the “mean steady-state concentration in patient serum” value in [20] (patients on tamoxifen, ref Stearns et al., 2003, Madlensky et al., 2011, Lien et al.) was “approximately 200 ng/ml”. Also, the “average blood plasma steady-state Cmax” value in data set [20] (patients receiving 20 mg tamoxifen per day, ref Lien et al.) is “approximately 200 ng/ml”. For the same compound, the “KS1 (apparent, endoxifen formation from NDT)” value in data set [21] came out at 5.1 ± 0.4 µM. The “KS2 (apparent, endoxifen formation from NDT)” value in data set [21] worked out at 3.9 ± 0.3 µM. Besides, the Km in data set [23] is 4.5 µM and 5.9 µM.

What is called Ki is a measure of affinity in units of concentration, obtained from inhibition or displacement. The term Cmax denotes the highest concentration seen after dosing. The Km is the concentration of substrate that gives half-maximal velocity.
